Test results published in patent US20120088791A1, “AMIDOBIPIPERIDINECARBOXYLATE M1 ALLOSTERIC AGONISTS, ANALOGS AND DERIVATIVES THEREOF, AND METHODS OF MAKING AND USING SAME” (VANDERBILT UNIVERSITY, priority 2009, published 2012).
Where two headings read alike, the source gives them in different places.

Target: T1, rM1 (Rattus norvegicus, UniProt P08482)
T1 construct: host or cells: CHO-K1
T1 sequence (P08482 1-460): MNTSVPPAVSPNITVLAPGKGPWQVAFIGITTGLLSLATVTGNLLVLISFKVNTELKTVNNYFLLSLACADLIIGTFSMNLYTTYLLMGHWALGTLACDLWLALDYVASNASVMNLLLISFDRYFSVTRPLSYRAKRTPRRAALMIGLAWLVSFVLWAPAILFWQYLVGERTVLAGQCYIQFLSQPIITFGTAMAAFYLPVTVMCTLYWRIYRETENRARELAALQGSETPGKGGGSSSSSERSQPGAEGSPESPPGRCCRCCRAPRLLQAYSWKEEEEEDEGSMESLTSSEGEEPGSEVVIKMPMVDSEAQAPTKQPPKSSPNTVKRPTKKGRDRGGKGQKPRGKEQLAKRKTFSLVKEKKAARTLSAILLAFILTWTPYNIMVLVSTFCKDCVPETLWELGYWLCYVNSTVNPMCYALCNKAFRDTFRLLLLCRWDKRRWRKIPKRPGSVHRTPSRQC
Test: Calcium mobilization assay, CHO-K1 cells stably expressing rM1
Type: cell-based
Conditions: for Emax: RM1, read-out: Efficacy (% Max ACh); for EC50: read-out: Potency (EC50)
Excerpt: Cell culture and transfections. Chinese hamster ovary (CHO-K1) cells stably expressing rat (r)M1 were purchased from the American Type Culture Collection and cultured according to their indicated protocol. CHO cells stably expressing human (h)M2, hM3, and hM5 were used and described previously (Levey et al., 1991); rM4 cDNA, provided by T. I. Bonner (National Institutes of Health, Bethesda, Md.), was used to stably transfect CHO-K1 cells purchased from the American Type Culture Collection using Lipofectamine2000. To make stable hM2 and rM4 cell lines for use in calcium mobilization assays, these cells also were stably transfected with a chimeric G-protein (Gqi5) using Lipofectamine 2000. M1, hM3, and hM5 cells were grown in Ham's F-12 medium containing 10% heat-inactivated fetal bovine serum (FBS), 20 mM HEPES, and 50 μg/ml G418 sulfate. hM2-Gqi5 cells were grown in the same medium also containing 500 μg/ml Hygromycin B. Stable rM4-Gqi5 cells were grown in DMEM containing 10% heat-inactivated FBS, 20 mM HEPES, 400 μg/ml G418 sulfate, and 500 μg/ml Hygromycin B. The rat M1 Y381A orthosteric mutant receptor cDNA was generated using the Quik-Change site-directed mutagenesis kit (Stratagene) and verified by sequencing. CHO-K1 cells were stably transfected with this cDNA using Lipofectamine2000 and screened for expression based on calcium mobilization in response to the allosteric M1 agonist N-desmethylclozapine.
Calcium mobilization assays. For measurement of agonist-evoked increases in intracellular calcium, CHO-K1 cells stably expressing muscarinic receptors were plated in 100 μl of growth medium at 5×10^4 (rM1, hM3, and hM5) or 6×10^4 cells per well (rM1 Y381A, hM2, and rM4) in Costar 96-well black-walled, tissue culture (TC)-treated, clear-bottom plates (Fisher). Cells were incubated overnight at 37° C. and 5% CO2. The next day, medium was removed from the cells, and they were incubated with 50 μl of 2 μM Fluo-4 AM diluted in assay buffer [HBSS (Invitrogen) supplemented with 20 mM HEPES and 2.5 mM probenecid, pH 7.4] for 1 h at 37° C. Dye was removed and replaced with 45 μl of assay buffer. Agonists were diluted into assay buffer at a 2× concentration and applied to cells using the automated system at 19 s into the 130 s protocol. Calcium flux was measured over time as an increase in fluorescence (fold over basal) using the Flexstation plate reader (Molecular Devices).

[1] = Table 1, R-enantiomers, agonist-evoked calcium flux

Emax (Table 1, R-enantiomers) [%]	EC50 [1] [nM]	EC50 (Table 2, S-enantiomers) [nM]	Structure (SMILES)
57	2600		CCOC(=O)N1CCC(N2CCC[C@@H](NC(=O)c3ccccc3Cl)C2)CC1 [(R)-ethyl 3-(2-chlorobenzamido)-1,4′-bipiperidine-1′-carboxylate]
84	309		CCOC(=O)N1CCC(N2CCC[C@@H](NC(=O)c3ccc(F)c(F)c3)C2)CC1 [(R)-ethyl 3-(3,4-difluorobenzamido)-1,4′-bipiperidine-1′-carboxylate]
92	144		CCOC(=O)N1CCC(N2CCC[C@@H](NC(=O)c3cccc(F)c3)C2)CC1 [(R)-ethyl 3-(3-fluorobenzamido)-1,4′-bipiperidine-1′-carboxylate]
91	245		CCOC(=O)N1CCC(N2CCC[C@@H](NC(=O)c3cccc(OC)c3)C2)CC1 [(R)-ethyl 3-(3-methoxybenzamido)-1,4′-bipiperidine-1′-carboxylate]
77	59		CCOC(=O)N1CCC(N2CCC[C@@H](NC(=O)c3ccc(F)cc3C)C2)CC1 [(R)-ethyl 3-(4-fluoro-2-methylbenzamido)-1,4′-bipiperidine-1′-carboxylate]
63	963		CCOC(=O)N1CCC(N2CCC[C@@H](NC(=O)c3ccc(OC)cc3)C2)CC1 [(R)-ethyl 3-(4-methoxybenzamido)-1,4′-bipiperidine-1′-carboxylate]
14	819		CCOC(=O)N1CCC(N2CCC[C@@H](NC(=O)c3ccc(C)cc3)C2)CC1 [(R)-ethyl 3-(4-methylbenzamido)-1,4′-bipiperidine-1′-carboxylate]
44	685		CCOC(=O)N1CCC(N2CCC[C@@H](NC(=O)C3CCCCC3)C2)CC1 [(R)-ethyl 3-(cyclohexanecarboxamido)-1,4′-bipiperidine-1′-carboxylate]
35	5300		CCOC(=O)N1CCC(N2CCC[C@@H](NC(=O)C3CCCC3)C2)CC1 [(R)-ethyl 3-(cyclopentanecarboxamido)-1,4′-bipiperidine-1′-carboxylate]
61	1300		CCOC(=O)N1CCC(N2CCC[C@@H](NC(=O)c3cccs3)C2)CC1 [(R)-ethyl 3-(thiophene-2-carboxamido)-1,4′-bipiperidine-1′-carboxylate]
		> 10000	CCOC(=O)N1CCC(N2CCC[C@H](NC(=O)c3ccccc3Cl)C2)CC1 [(S)-ethyl 3-(2-chlorobenzamido)-1,4′-bipiperidine-1′-carboxylate]
		> 10000	CCOC(=O)N1CCC(N2CCC[C@H](NC(=O)c3ccccc3C)C2)CC1 [(S)-ethyl 3-(2-methylbenzamido)-1,4′-bipiperidine-1′-carboxylate]
		> 10000	CCOC(=O)N1CCC(N2CCC[C@H](NC(=O)c3ccc(F)c(F)c3)C2)CC1 [(S)-ethyl 3-(3,4-difluorobenzarnido)-1,4′-bipiperidine-1′-carboxylate]
		> 10000	CCOC(=O)N1CCC(N2CCC[C@H](NC(=O)c3cccc(F)c3)C2)CC1 [(S)-ethyl 3-(3-fluorobenzamido)-1,4′-bipiperidine-1′-carboxylate]
		> 10000	CCOC(=O)N1CCC(N2CCC[C@H](NC(=O)c3cccc(OC)c3)C2)CC1 [(S)-ethyl 3-(3-methoxybenzamido)-1,4′-bipiperidine-1′-carboxylate]
		> 10000	CCOC(=O)N1CCC(N2CCC[C@H](NC(=O)c3ccc(F)cc3C)C2)CC1 [(S)-ethyl 3-(4-fluoro-2-methylbenzamido)-1,4′-bipiperidine-1′-carboxylate]
		> 10000	CCOC(=O)N1CCC(N2CCC[C@H](NC(=O)c3ccc(OC)cc3)C2)CC1 [(S)-ethyl 3-(4-methoxybenzamido)-1,4′-bipiperidine-1′-carboxylate]
		> 10000	CCOC(=O)N1CCC(N2CCC[C@H](NC(=O)c3ccc(C)cc3)C2)CC1 [(S)-ethyl 3-(4-methylbenzamido)-1,4′-bipiperidine-1′-carboxylate]
		> 10000	CCOC(=O)N1CCC(N2CCC[C@H](NC(=O)C3CCCCC3)C2)CC1 [(S)-ethyl 3-(cyclohexanecarboxamido)-1,4′-bipiperidine-1′-carboxylate]
		> 10000	CCOC(=O)N1CCC(N2CCC[C@H](NC(=O)C3CCCC3)C2)CC1 [(S)-ethyl 3-(cyclopentanecarboxamido)-1,4′-bipiperidine-1′-carboxylate]
		> 10000	CCOC(=O)N1CCC(N2CCC[C@H](NC(=O)c3cccs3)C2)CC1 [(S)-ethyl 3-(thiophene-2-carboxamido)-1,4′-bipiperidine-1′-carboxylate]
		> 10000	CCOC(=O)N1CCC(N2CCC[C@H](NC(=O)c3ccccc3)C2)CC1 [(S)-ethyl 3-benzamido-1,4′-bipiperidine-1′-carboxylate]
